# Data reported in patent US6136845A (The Texas A&M University System, priority 1998, dated 2000).
# Like-named read-outs stand apart in the source and are kept apart here.
# Columns and labels:
# mammary tumor [1] = conditions: cited from earlier work
# liver = conditions: result in words; cited from earlier work
# CYP1A1 [2] = conditions: result in words; cited from earlier work
# rat uterus = conditions: immature female rat uterus; result in words; cited from earlier work
# CYP1A1 [3] = conditions: cited from earlier work; for ED50 for induction of hepatic CYP1A1-dependent activity: 6-i-propyl value estimated
# mammary tumor [4] = conditions: rodent models; cited from earlier work
# [5] = tested on: 17β-estradiol (E2)-induced responses; conditions: rats, mice; cited from earlier work
# [6] = tested on: MCF-7 human breast cancer cell lines; conditions: MCF-7 cells in culture; cited from earlier work
# ER = conditions: 21 to 25 day-old female Sprague-Dawley rat uterus; cited from earlier work
# PR = conditions: 21 to 25 day-old female Sprague-Dawley rat uterus; cited from earlier work
# [7] = in vivo; cited from earlier work
# mammary tumors = test: DMBA-induced rat mammary tumor model, tumor volume and weight; type: in vivo, Sprague-Dawley rat; conditions: 20 days
# Protocol: Female virgin Sprague-Dawley rats were obtained from Harlan (Houston) and were allowed to acclimate for 10 days, allowed access to food and water ad libitum, and maintained on a 12 h light/dark schedule. Mammary tumors were induced in 50±3 day old-rats by administering a single gavage dose of 20 mg DMBA in 0.5 ml corn oil. […] Tumor sizes were measured with calipers, and volumes were calculated by formula (length×width×depth)/6π and are expressed as percent control. […] All tumors were removed, weighed, and sectioned. One portion was frozen in liquid nitrogen for PCR analysis; one portion was placed in 10% formalin for histopathological analysis; and the majority was immediately homogenized for the preparation of microsomal and cytosolic fractions. Livers were perfused and weighed, and cytosol and microsomes were prepared as previously described.
# [8] = Body and organ weights in DMBA-treated rats
# Protocol: Female virgin Sprague-Dawley rats were obtained from Harlan (Houston) and were allowed to acclimate for 10 days, allowed access to food and water ad libitum, and maintained on a 12 h light/dark schedule. Mammary tumors were induced in 50±3 day old-rats by administering a single gavage dose of 20 mg DMBA in 0.5 ml corn oil. […] Tumor sizes were measured with calipers, and volumes were calculated by formula (length×width×depth)/6π and are expressed as percent control. One week after their last injection, rats were euthanized by asphyxiation. All tumors were removed, weighed, and sectioned. One portion was frozen in liquid nitrogen for PCR analysis; one portion was placed in 10% formalin for histopathological analysis; and the majority was immediately homogenized for the preparation of microsomal and cytosolic fractions. Livers were perfused and weighed, and cytosol and microsomes were prepared as previously described.
# femurs = test: Bone effects in ovariectomized rats (femur weight and length); type: in vivo, Sprague-Dawley rat; conditions: tamoxifen 0.4, 6-MCDF 0.8 mg/kg/day oral, 20 days
# Protocol: The ovariectomized rat is used as a model for osteoporosis.
# Rats were euthanized on day 21. After uteri were excised and processed, both left and right femurs were excised and the length measured with calipers. […] Wet weight was measured after residual connective tissue was stripped away. Dry weight was measured after the bones were dried for 12 ours at 130° C.
# uterus [9] = test: Uterine wet weight in ovariectomized rats (Example 4); type: in vivo, Sprague-Dawley rat; conditions: 0.4 mg/kg/day each oral, 20 days
# Text: (§2) Methods: Rats were ovariectomized at 97 days of age, and treatments began at 117 days of age. […] Rats were euthanized on day 21.
# uterine peroxidase [10] = test: Uterine peroxidase assay in ovariectomized rats (Example 4); type: in vivo, Sprague-Dawley rat; conditions: 0.4 mg/kg/day each oral, 20 days
# Text: (§1) Rats were euthanized on day 21.
# uterine cytosolic PR = test: Uterine cytosolic PR levels in ovariectomized rats (Example 4); type: in vivo, Sprague-Dawley rat; conditions: 0.4 mg/kg/day each oral, 20 days
# Text: as §1
# uterus [11] = test: Uterine wet weight in ovariectomized rats (Example 6, Table 6); type: in vivo, Sprague-Dawley rat; conditions: tamoxifen 0.4, 6-MCDF 0.8 mg/kg/day oral, 20 days
# Text: as §1
# uterine peroxidase [12] = test: Uterine peroxidase activity in ovariectomized rats (Example 6, Table 6); type: in vivo, Sprague-Dawley rat; conditions: tamoxifen 0.4, 6-MCDF 0.8 mg/kg/day oral, 20 days
# Text: as §1
# [13] = tested on: uterine progesterone receptor; test: Uterine progesterone receptor in ovariectomized rats (Example 6, Table 6); type: in vivo, Sprague-Dawley rat; conditions: tamoxifen 0.4, 6-MCDF 0.8 mg/kg/day oral, 20 days
# Text: as §1
# bone tissue = conditions: cited from earlier work
# endometrial tumor = conditions: cited from earlier work
# uterus [14] = conditions: cited from earlier work
# [15] = Body and organ weights (Examples 4 and 5)
# Protocol: as §2
# For the control vehicle and the MCDF vehicle ethanol was added (5% v/v) and then evaporated away.
# [16] = Body and organ weights (Example 6, Table 7)
# Protocol: For Table 7 and FIGS. 3 and 3B, exact aged virgin female Sprague-Dawley rats were dosed on day 55 in the afternoon with 20 mg/rat 7,12-dimethylbenz[a]anthacene in a volume of 0.5 ml/rat corn oil (rats weigh approximately 165 g, resulting in 120 mg/kg DMBA and 3 ml/kg corn oil).
# [17] = each drug 0.4 mg/kg/day by gavage, DMBA rats
smiles,measurement,setting,value
"Cc1cc(Cl)c2oc3cc(Cl)cc(Cl)c3c2c1 [8-MCDF, 8-methyl-1,3,6-trichlorodibenzofuran]",growth inhibition,mammary tumor [1]; 5 mg/kg/wk,> 50%
same,mammary tumor growth,"mammary tumor [1]; 5, 10 or 25 mg/kg/wk, result in words",significantly inhibited
same,liver morphology,liver,not accompanied by any significant changes
same,liver/body weight ratios,liver,not accompanied by any significant changes
same,induction of hepatic CYP1A1-dependent activity,CYP1A1 [2],not accompanied by any significant changes
"Cc1cc2c(cc1Cl)oc1c(Cl)c(Cl)c(Cl)cc12 [8-methyl-2,3,4,7-tetraCDF]",ED50 values for antiestrogenicity,rat uterus,similar
same,ED50 for induction of hepatic CYP1A1-dependent activity,CYP1A1 [3]; rat,5.31 mmol/kg
"Clc1cc(Cl)c2c(c1)oc1c(C3CCCCC3)cc(Cl)cc12 [6-CHDF, 6-cyclohexyl-1,3,8-triCDF]",antitumorigenic activity,"mammary tumor [1]; 5 mg/kg/wk, result in words",inactive
"Clc1cc2c(cc1Cl)Oc1cc(Cl)c(Cl)cc1O2 [TCDD, 2,3,7,8-tetrachlorodibenzo-p-dioxin, reference compound]",mammary tumor growth,mammary tumor [4],inhibit mammary tumor growth
same,antiestrogenic activity,[5],effective antiestrogen
same,antiestrogenic activity,[6],effective antiestrogen
same,nuclear and cytosolic ER binding,ER,dose-dependent decrease
same,nuclear and cytosolic progesterone receptor (PR) binding,PR,dose-dependent decrease
same,hepatocarcinogenicity,[7],too hepatocarcinogenic
same,induction of CYP1A1,CYP1A1 [3]; result in words,induces toxic and biochemical responses
"CC/C(=C(\c1ccccc1)c1ccc(OCCN(C)C)cc1)c1ccccc1 [tamoxifen, reference compound]",Tumor Wt (% Control),"mammary tumors; 0.4 mg/kg/day each, control 100 ± 27.7",61.5 ± 30.4 % Control
same,Final Tumor Volume (% Control),"mammary tumors; 0.4 mg/kg/day each, control 100 ± 31.5",41.5 ± 20 % Control
same,Final Tumor Volume,"mammary tumors; 0.4 mg/kg/day each, control 2734 ± 956",1135 ± 587 mm^3
same,% Inhibition tumor volume,mammary tumors; [17],58.5%
same,% Inhibition tumor weight,mammary tumors; [17],NS decrease
same,Uterine Wt.,"[8]; 0.4 mg/kg/day each, 20 days, control 0.212 ± 0.017",0.142 ± 0.006 % BW
same,Spleen Wt.,"[8]; 0.4 mg/kg/day each, 20 days, control 0.257 ± .022",0.236 ± 0.019 % BW
same,Kidney weight,"[8]; 0.4 mg/kg/day each, 20 days, control 0.349 ± 0.007",0.386 ± 0.012 % BW
same,Liver weight,"[8]; 0.4 mg/kg/day each, 20 days, control 3.13 ± 0.12",3.64 ± 0.18 % BW
same,Final Body Weight,"[8]; 0.4 mg/kg/day each, 20 days, control 250 ± 5",243 ± 4 g
same,Heart weight,"[8]; rat, in vivo",0.420 ± 0.018 % BW
same,Dry bone weight,femurs; control 0.180 ± 0.005,0.216 ± 0.005 % body weight
same,Wet bone weight,femurs; control 0.347 ± 0.009,0.403 ± 0.007 % body weight
same,Uterine Wet Weight (% body wt),uterus [9]; control 0.045 ± 0.002,0.085 ± 0.004 % body wt
same,Uterine Wet Weight,uterus [9]; control 0.131 ± 0.006,0.211 ± 0.011 g
same,Uterine Peroxidase Assay (Abs/g uterus),uterine peroxidase [10]; per g uterus,17.7 ± 0.45 Fold Increase over Control
same,Uterine Peroxidase Assay (Abs/mg protein),uterine peroxidase [10]; per mg protein,17.5 ± 0.60 Fold Increase over Control
same,Uterine Peroxidase Assay (Abs/uterus),uterine peroxidase [10]; per uterus,28.41 ± 0.73 Fold Increase over Control
same,Uterine cytosolic PR levels (fmol/mg protein),uterine cytosolic PR; control 308 ± 142,674 ± 52 fmol/mg protein
same,Uterine cytosolic PR levels (fmol/uterus),uterine cytosolic PR; control 1100 ± 508,4501 ± 350 fmol/uterus
same,Uterine cytosolic PR levels (fmol/g uterus),uterine cytosolic PR; control 8368 ± 3868,21301 ± 1655 fmol/g uterus
same,Uterine wet weight (% body weight),uterus [11]; control 0.0583 ± 0.0055,0.0857 ± 0.0036 % body weight
same,Uterine wet weight,uterus [11]; control 0.171 ± 0.15,0.208 ± 0.009 g
same,Uterine Peroxidase Activity (Absorbance/g uterus),uterine peroxidase [12]; per g uterus,31.94 ± 0.26 Fold Increase over control
same,Uterine Peroxidase Activity (Absorbance/mg protein),uterine peroxidase [12]; per mg protein,26.76 ± 0.22 Fold Increase over control
same,Uterine Peroxidase Activity (Absorbance/uterus),uterine peroxidase [12]; per uterus,38.66 ± 0.32 Fold Increase over control
same,Uterine Progesterone Receptor (fmol/mg protein),[13]; control 198 ± 15,790 ± 21 fmol/mg protein
same,Uterine Progesterone Receptor (fmol/uterus),[13]; control 765 ± 69,9062 ± 244 fmol/uterus
same,Uterine Progesterone Receptor (fmol/g uterus),[13]; control 4462 ± 343,43666 ± 1175 fmol/g uterus
same,effect in bone,bone tissue; cycling rats (Takahashi et al. 1996),no effect
same,effect in bone tissue,bone tissue; ovariectomized rats (Turner et al. 1987),acted as an estrogen agonist
same,risk for endometrial tumor formation,"endometrial tumor; 2843 patients, 20 mg/day (Fisher et al. 1994)",7.5 fold
same,risk for endometrial tumors,"endometrial tumor; Danish trial, 30 mg/day for one year",3.3 fold
same,risk for endometrial tumors,"endometrial tumor; Scottish and Manchester England trials, 20 mg/day",no increased risk
same,risk for endometrial tumors,"endometrial tumor; South-Swedish trial, 30 mg/day for one year",2.0 fold
same,risk for endometrial tumors,"endometrial tumor; Stockholm trial, 40 mg/day for 2 years",approximately 6 fold
same,risk/incidence of endometrial cancer,"endometrial tumor; women, breast cancer treatment, result in words",Risk of endometrial cancer increases
same,uterine hyperplasia,uterus [14]; most animal models,induced uterine hyperplasia
same,rat uterine wet weight,"uterus [14]; rat, result in words",significant dose dependent increases
same,Rat weight at start of treatments,"[15]; Table 5, baseline, control 273.1 ± 8.1",275.7 ± 7.6 g
same,Spleen wet weight (% body wt),"[15]; Table 5, control 0.247 ± 0.007",0.252 ± .008 % body wt
same,kidney weight (% body wt),"[15]; Table 5, control 0.318 ± 0.010",0.334 ± 0.008 % body wt
same,Heart weight (% body wt),"[15]; Table 5, control 0.319 ± 0.006",0.346 ± 0.005 % body wt
same,Spleen wet weight,"[15]; Table 5, control 0.72O ± 0.012",0.631 ± 0.037 g
same,Kidney weight,"[15]; Table 5, control 0.933 ± 0.038",0.837 ± 0.045 g
same,Heart weight,"[15]; Table 5, control 0.935 ± 0.039",0.864 ± 0.031 g
same,Liver weight (% body wt),"[15]; Table 5, control 4.06 ± 0.23",4.26 ± 0.26 % body wt
same,Liver weight,"[15]; Table 5, control 11.88 ± 0.78",10.70 ± 0.92 g
same,Rat weight prior to euthanasia,"[15]; Table 5, control 293.2 ± 10.9",249.8 ± 7.6 g
same,Rat weight at start of treatments,"[16]; Table 7, baseline, control 255 ± 3",261 ± 9 g
same,Spleen weight (% body weight),"[16]; Table 7, control 0.289 ± 0.018",0.254 ± 0.018 % body weight
same,Kidney weight (% body weight),"[16]; Table 7, control 0.334 ± 0.010",0.369 ± 0.017 % body weight
same,Heart weight (% body weight),"[16]; Table 7, control 0.360 ± 0.010",0.357 ± 0.023 % body weight
same,Rat weight prior to euthanasia,"[16]; Table 7, control 295 ± 11",242 ± 6 g
"CC(C)c1cc(Cl)cc2c1oc1cc(Cl)cc(Cl)c12 [6-i-propyl-1,3,8-triCDF]",ED50 values for antiestrogenicity,rat uterus,similar
same,ED50 (CYP1A1 induction)/ED50 (antiestrogenicity) ratio,"CYP1A1 [3]; rat, high ratio indicates low toxicity and high antiestrogenic potency","13,990-17,100"
"Cc1cc(Cl)cc2c1oc1c(Cl)c(Cl)c(Cl)cc12 [6-methyl-2,3,4,8-tetraCDF, 6-methyl-2,3,4,8-tetrachlorodibenzofuran]",ED50 values for antiestrogenicity,rat uterus,similar
same,ED50 for induction of hepatic CYP1A1-dependent activity,CYP1A1 [3]; rat,8.52 mmol/kg
